Results taken from patent US6218379A, “Tricyclic carbacephems” (Hoffmann-la Roche Inc., priority 1996, dated 2001).
Values after ≈ are worked out from the molar mass of the structure shown. Structures can show the parent of a compound that is named as a salt.

Tests used:
[1] = tested on: Staphylococcus aureus 887; test: Antibacterial activity in vitro (MIC) against Staphylococcus aureus 887; type: cell-based; details: read-out: MIC S. aureus 887
Method: (§1) The minimum inhibitory concentration in vitro (MIC in μg/ml) of a compound of formula I against Citrobacter freundii 1982 and Staphylococcus aureus 887 is measured and compiled in Table 2.

[2] = tested on: Citrobacter freundii 1982; test: Antibacterial activity in vitro (MIC) against Citrobacter freundii 1982; type: cell-based; details: read-out: MIC C. freundii 1982
Method: as §1

| SMILES | MIC [1] [µg/mL] | MIC [2] [µg/mL] |
| --- | --- | --- |
| CC(=O)N1C[C@H]2CC(/C=C/c3cccc[n+]3CC(N)=O)=C(C(=O)[O-])N3C(=O)[C@@H]1[C@@H]23 [Example 72, (E)-(1aS,3aR,6bR)-2-Acetyl-5-[2-(1-carbamoylmethyl-pyridin-1-ium-2-yl)-vinyl]-1-oxo-1a,2,3,3a,4,6b-hexahydro-1H-2,6a-diaza-cyclobut[cd]indene-6-carboxylate] | 64 (≈ 161 µM) | 64 (≈ 161 µM) |
| CC(=O)N1C[C@H]2CC(/C=C3\CCN(CC(F)(F)F)C3=O)=C(C(=O)O)N3C(=O)[C@@H]1[C@@H]23 [Example 25, (E)-(1aS,3aR,6bR)-2-Acetyl-1-oxo-5-[2-oxo-1-(2,2,2-trifluoroethyl)-pyrrolidin-3-ylidenemethyl]-1a,2,3,3a,4,6b-hexahydro-1H-2,6a-diaza-cyclobut[cd]indene-6-carboxylic acid sodium salt (1:1)] | 4 | 1 |
| O=C(O)C1=C(/C=C2\CCN(Cc3ccc([N+](=O)[O-])cc3)C2=O)C[C@@H]2CN[C@@H]3C(=O)N1[C@H]23 [Example 15, (E)-(1aS,3aR,6bR)-1-Oxo-5-[2-oxo-1-(4-nitrobenzyl)-pyrrolidin-3-ylidenemethyl]-1a,2,3,3a,4,6b-hexahydro-1H-2,6a-diaza-cyclobut[cd]indene-6-carboxylic acid trifluoroacetate (1:0.77)] | 8 | 32 |
| O=C(O)C1=C(/C=C/c2cnc3ccccc3c2)C[C@@H]2CN[C@@H]3C(=O)N1[C@H]23 [Example 55, (E)-(1aS,3aR,6bR)-1-Oxo-5-(2-quinolin-3-yl-vinyl)-1a,2,3,3a,4,6b-hexahydro-1H-2,6a-diaza-cyclobut[cd]indene-6-carboxylic acid trifluoroacetate (1:1.4)] | 4 | 64 |
| O=C(O)C1=C(/C=C/c2ccc3ccccc3n2)C[C@@H]2CN[C@@H]3C(=O)N1[C@H]23 [Example 54, (E)-(1aS,3aR,6bR)-1-Oxo-5-(2-quinolin-2-yl-vinyl)-1a,2,3,3a,4,6b-hexahydro-1H-2,6a-diaza-cyclobut[cd]indene-6-carboxylic acid trifluoroacetate (1:1.5)] | 64 | 64 |
| CC(=O)N1C[C@H]2CC(/C=C/c3ccc[n+](C/C=C/c4ccccc4)c3)=C(C(=O)[O-])N3C(=O)[C@@H]1[C@@H]23 [Example 69, (1aS,3aR,6bR)-2-Acetyl-1-oxo-5-[(E)-2-[1-[(E)-3-phenylallyl]-pyridin-1-ium-3-yl)-vinyl]-1a,2,3,3a,4,6b-hexahydro-1H-2,6a-diaza-cyclobut[cd]indene-6-carboxylate] | 0.25 (≈ 0.549 µM) | 32 (≈ 70.3 µM) |
| O=C(O)C1=C(/C=C/c2ccccn2)C[C@@H]2CN(C(=O)C(F)(F)F)[C@@H]3C(=O)N1[C@H]23 [Example 64, (E)-(1aS,3aR,6bR)-1-Oxo-5-(2-pyridin-2-yl-vinyl)-2-trifluoroacetyl-1a,2,3,3a,4,6b-hexahydro-1H-2,6a-diaza-cyclobut[cd]indene-6-carboxylic acid sodium salt (1:1)] | 2 | 32 |
| CC(=O)N1C[C@H]2CC(/C=C3\CCN(c4ccc[n+](Cc5ccccc5)c4)C3=O)=C(C(=O)[O-])N3C(=O)[C@@H]1[C@@H]23 [Example 39, (E)-(1aS,3aR,6bR)-2-Acetyl-5-[1-(1-benzyl-pyridin-1-ium-3-yl)-2-oxo-pyrrolidin-3-ylidenemethyl]-1-oxo-1a,2,3,3a,4,6b-hexahydro-1H-2,6a-diaza-cyclobut[cd]indene-6-carboxylate acid] | 2 (≈ 4.01 µM) | 4 (≈ 8.02 µM) |
| O=C(O)C1=C(/C=C2\CCN(Cc3cccs3)C2=O)C[C@@H]2CN(C(=O)C(F)(F)F)[C@@H]3C(=O)N1[C@H]23 [Example 35, (E)-(1aS,3aR,6bR)-1-Oxo-5-[2-oxo-1-(thiophen-2-yl-methyl)-pyrrolidin-3-ylidenemethyl]-2-trifluoroacetyl-1a,2,3,3a,4,6b-hexahydro-1H-2,6a-diaza-cyclobut[cd]indene-6-carboxylic acid sodium salt (1:1)] | 4 | 32 |
